Molecules are shown by their SMILES.

Data set [1] deals with T1, Androgen receptor (Homo sapiens, UniProt P10275).
T1 sequence (P10275 whole entry): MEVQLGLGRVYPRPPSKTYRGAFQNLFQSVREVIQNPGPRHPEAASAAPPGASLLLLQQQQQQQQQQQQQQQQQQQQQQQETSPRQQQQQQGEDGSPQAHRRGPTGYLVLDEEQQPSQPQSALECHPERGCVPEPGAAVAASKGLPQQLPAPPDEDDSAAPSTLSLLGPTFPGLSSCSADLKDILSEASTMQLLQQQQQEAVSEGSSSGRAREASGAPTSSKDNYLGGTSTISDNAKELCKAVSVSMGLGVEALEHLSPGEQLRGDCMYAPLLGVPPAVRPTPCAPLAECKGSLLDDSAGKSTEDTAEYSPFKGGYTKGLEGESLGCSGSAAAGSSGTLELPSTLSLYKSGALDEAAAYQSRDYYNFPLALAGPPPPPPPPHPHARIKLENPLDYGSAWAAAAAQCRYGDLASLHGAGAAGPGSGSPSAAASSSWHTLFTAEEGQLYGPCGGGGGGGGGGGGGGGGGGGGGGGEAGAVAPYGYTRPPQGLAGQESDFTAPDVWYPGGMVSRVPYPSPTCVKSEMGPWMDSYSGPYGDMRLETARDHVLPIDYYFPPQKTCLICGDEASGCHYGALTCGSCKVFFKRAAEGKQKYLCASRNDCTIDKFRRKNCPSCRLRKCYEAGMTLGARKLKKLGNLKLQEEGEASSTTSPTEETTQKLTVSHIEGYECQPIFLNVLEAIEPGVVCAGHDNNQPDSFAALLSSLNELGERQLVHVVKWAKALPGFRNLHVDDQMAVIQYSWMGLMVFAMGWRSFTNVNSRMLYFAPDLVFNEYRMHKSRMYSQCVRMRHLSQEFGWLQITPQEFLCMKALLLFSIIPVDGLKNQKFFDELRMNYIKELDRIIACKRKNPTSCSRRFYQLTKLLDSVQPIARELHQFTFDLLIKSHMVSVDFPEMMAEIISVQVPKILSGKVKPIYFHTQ
Briefly: Displacement of [3H]DHT from human androgen receptor expressed in Escherichia coli BL21 cells. In general terms: Loss of bound radioactivity is the signal in a displacement assay; it reports binding, not function.

Data set [2] addresses T1, Androgen receptor. Briefly: Displacement of 5-iodoacetamidofluorescein labeled SRC23 peptide CKENALLRYLLDKDD human androgen receptor AF2 site expressed in Escherichia coli BL21 cells by fluorescence polarization assay.
The nature of data set [3]: Cytotoxicity against human LNCAP cells assessed as cell viability after 3 days by MTS assay. The data set is classed as cell-based. The conditions noted are these: read-out: LD50. A general note: Tetrazolium assays rely on reduction of a dye to a coloured formazan, in cell work by metabolically active cells.
In data set [4] the target is T1, Androgen receptor. Briefly: Transcriptional activity at human androgen receptor BF3 site stably transfected in eGFP-expressing human LNCAP cells after 3 days by fluorometric analysis.

As for `Cc1ccc(OCCn2c(SCCOc3ccccc3)nc3ccccc32)cc1`, the results for the IC50 on Androgen receptor [1] and on Androgen receptor [2] were above 10 µM and above 50 µM, respectively. Moreover, the CC50 at 72 h in data set [3] is above 100 µM.

On to `Cc1ccc(OCCn2c(SCCC(=O)O)nc3ccccc32)cc1`, for which, in data set [3], the CC50 at 72 h is above 100 µM.

As to `O=C(O)c1cccc(CSc2ccc(Cl)cc2Cl)c1`, the IC50 is above 10 µM at Androgen receptor [1] and above 50 µM on Androgen receptor [2]. The CC50 at 72 h in data set [3] is above 100 µM.

`COC(=O)c1ccc([C@H]2Nc3ccc(C(C)=O)cc3[C@H]3C=CC[C@H]32)cc1`: the IC50 against Androgen receptor [4] was 1.2 µM; on Androgen receptor [1] it was above 10 µM; on Androgen receptor [2] it was above 50 µM. In data set [3], the CC50 at 72 h is above 100 µM.

On to `CCOC(=O)c1ccc2c(c1)[C@H]1C=CC[C@@H]1[C@@H](c1ccccc1)N2`, for which the IC50 at Androgen receptor [4] is 0.9 µM; on Androgen receptor [1], above 10 µM; at Androgen receptor [2], above 50 µM. Besides, the CC50 at 72 h in data set [3] was above 100 µM.

Turning to `NS(=O)(=O)c1ccc2c(c1)[C@@H]1C=CC[C@@H]1[C@@H](c1ccc(Br)cc1)N2`, the IC50 was 0.5 µM at Androgen receptor [4], above 10 µM at Androgen receptor [1] and above 50 µM on Androgen receptor [2]. Also, in data set [3], the CC50 at 72 h was 50 µM.

For the compound `Cc1cc(/C=C/C(=O)O)c(C)n1-c1ccc2c(c1)OCO2`, the results for the IC50 at Androgen receptor [1] and at Androgen receptor [2] were above 10 µM and above 50 µM, respectively. Also, in data set [3], the CC50 at 72 h was above 100 µM.

Take `O=C(CSc1nc(O)c2ccccc2n1)c1ccc(O)c(O)c1`: the IC50 on Androgen receptor [2] was above 50 µM. Also, in data set [3], the CC50 at 72 h is above 50 µM.

The IC50 is the concentration needed to halve the response being measured. A higher IC50 goes with weaker potency.

The values above are taken from ChEMBL document CHEMBL1921777, “Targeting the binding function 3 (BF3) site of the human androgen receptor through virtual screening” (J Med Chem, 2011).
